Measurements taken from ChEMBL document CHEMBL3425436, “Assessing the oral bioavailability of difluorosialic acid prodrugs, potent viral neuraminidase inhibitors, using a snapshot PK screening assay” (Bioorg Med Chem Lett, 2015).

What was measured:
Mus musculus [1] = assay: Total plasma concentration in CD1 mouse assessed as (2R,3R,4R,5R,6R)-5-acetamido-4-amino-2,3-difluoro-6-((1R,2R)-1,2,3-trihydroxypropyl)tetrahydro-2H-pyran-2-carboxylic acid at 30 mg/kg, po measured at 20 mins by reversed-phase UPLC/MS analysis; format: ADME, organism-based; parameters: dose 30 mg/kg, route oral; details: in vivo
Mus musculus [2] = assay: Total plasma concentration in CD1 mouse assessed as (2R,3R,4R,5R,6R)-5-acetamido-4-amino-2,3-difluoro-6-((1R,2R)-1,2,3-trihydroxypropyl)tetrahydro-2H-pyran-2-carboxylic acid at 30 mg/kg, po measured at 60 mins by reversed-phase UPLC/MS analysis; format: ADME, organism-based; parameters: dose 30 mg/kg, route oral; details: in vivo, 1 h
Mus musculus [3] = assay: Oral bioavailability in CD1 mouse assessed as (2R,3R,4R,5R,6R)-5-acetamido-4-amino-2,3-difluoro-6-((1R,2R)-1,2,3-trihydroxypropyl)tetrahydro-2H-pyran-2-carboxylic acid at 30 mg/kg; format: ADME, organism-based; details: in vivo
[4] = Stability in simulated gastric fluid at 10 uM at pH 1 measured at 15 mins; format: ADME; details: read-out: Stability
[5] = Stability in simulated gastric fluid at 10 uM at pH 4 measured at 60 mins; format: ADME; details: read-out: Stability
[6] = Stability in simulated gastric fluid at 10 uM at pH 1 measured at 60 mins; format: ADME; details: read-out: Stability
[7] = Stability in simulated gastric fluid at 10 uM at pH 4 measured at 15 mins; format: ADME; details: read-out: Stability
[8] = Metabolic stability in mouse plasma at 10 uM measured at 15 mins; format: ADME, cell-free; details: read-out: Stability
Mus musculus [9] = assay: AUC in CD1 mouse assessed as (2R,3R,4R,5R,6R)-5-acetamido-4-amino-2,3-difluoro-6-((1R,2R)-1,2,3-trihydroxypropyl)tetrahydro-2H-pyran-2-carboxylic acid at 30 mg/kg, po; format: ADME, organism-based, Plasma; parameters: dose 30 mg/kg, route oral; details: in vivo
[10] = Metabolic stability in mouse plasma at 10 uM measured at 60 mins; format: ADME, cell-free; details: read-out: Stability
Mus musculus [11] = assay: Tmax in CD1 mouse assessed as (2R,3R,4R,5R,6R)-5-acetamido-4-amino-2,3-difluoro-6-((1R,2R)-1,2,3-trihydroxypropyl)tetrahydro-2H-pyran-2-carboxylic acid at 30 mg/kg, po; format: ADME, organism-based; parameters: dose 30 mg/kg, route oral; details: in vivo
Mus musculus [12] = assay: Cmax in CD1 mouse assessed as (2R,3R,4R,5R,6R)-5-acetamido-4-amino-2,3-difluoro-6-((1R,2R)-1,2,3-trihydroxypropyl)tetrahydro-2H-pyran-2-carboxylic acid at 30 mg/kg, po; format: ADME, organism-based; parameters: dose 30 mg/kg, route oral; details: in vivo
[13] = Total plasma concentration in CD1 mouse at 30 mg/kg, po measured at 20 mins by reversed-phase UPLC/MS analysis; format: ADME, organism-based; parameters: dose 30 mg/kg, route oral
[14] = Total plasma concentration in CD1 mouse at 30 mg/kg, po measured at 60 mins by reversed-phase UPLC/MS analysis; format: ADME, organism-based; parameters: dose 30 mg/kg, route oral

Structure (SMILES)	concentration (Mus musculus [1]) [nM]	concentration (Mus musculus [2]) [nM]	other results
CC(=O)N[C@@H]1[C@@H](N)[C@@H](F)[C@](F)(C(=O)OCCCCCOC(=O)c2ccc3ccccc3c2O)O[C@H]1[C@H](O)[C@H](O)CO	290	800	
CC(=O)N[C@@H]1[C@@H](N)[C@@H](F)[C@](F)(C(N)=O)O[C@H]1[C@H](O)[C@H](O)CO	710	3330	
CC(=O)N[C@@H]1[C@@H](N)[C@@H](F)[C@](F)(C(=O)NCCO)O[C@H]1[C@H](O)[C@H](O)CO	690	1390	
CC(=O)N[C@@H]1[C@@H](N)[C@@H](F)[C@](F)(C(=O)NCc2ccccc2)O[C@H]1[C@H](O)[C@H](O)CO	270	590	
COC(=O)CNC(=O)[C@]1(F)O[C@@H]([C@H](O)[C@H](O)CO)[C@H](NC(C)=O)[C@@H](N)[C@H]1F	2550	4390	
COC(=O)[C@]1(F)O[C@@H]([C@H](O)[C@H](O)COC(=O)OCC(C)C)[C@H](NC(C)=O)[C@@H](N)[C@H]1F	9930	11300	F (Mus musculus [3]): 3.9%; remaining at 0.25 h, 10 µM [4]: 90%; remaining at 1 h, 10 µM [5]: 86%; remaining at 1 h, 10 µM [6]: 74%; remaining at 0.25 h, 10 µM [7]: 98%; remaining at 0.25 h, 10 µM [8]: 81%; AUC (Mus musculus [9]): 293 µmol·min; remaining at 1 h, 10 µM [10]: 17%; Tmax (Mus musculus [11]): 1 h; Cmax (Mus musculus [12]): 2700 nM
CCCCCCCCOC(=O)OC[C@@H](O)[C@@H](O)[C@@H]1O[C@@](F)(C(=O)OC)[C@H](F)[C@H](N)[C@H]1NC(C)=O	2970	6880	F (Mus musculus [3]): 6.7%; remaining at 0.25 h, 10 µM [4]: 99%; remaining at 1 h, 10 µM [5]: 88%; remaining at 1 h, 10 µM [6]: 90%; remaining at 0.25 h, 10 µM [7]: 94%; AUC (Mus musculus [9]): 452 µmol·min; Tmax (Mus musculus [11]): 1 h; Cmax (Mus musculus [12]): 4100 nM
CCC1(CC)OC[C@H]([C@@H](O)[C@@H]2O[C@@](F)(C(=O)OC)[C@H](F)[C@H](N)[C@H]2NC(C)=O)O1	1950	2250	
COC(=O)[C@]1(F)O[C@@H]([C@H](O)[C@H]2COC(C(C)C)(C(C)C)O2)[C@H](NC(C)=O)[C@@H](N)[C@H]1F	620	730	
COC(=O)[C@]1(F)O[C@@H]([C@H](O)[C@H]2COC3(CCCC3)O2)[C@H](NC(C)=O)[C@@H](N)[C@H]1F	490	1690	
COC(=O)[C@]1(F)O[C@@H]([C@H](O)[C@H]2COC(=O)O2)[C@H](NC(C)=O)[C@@H](N)[C@H]1F	350	730	
COC(=O)OC[C@@H](O)[C@@H](O)[C@@H]1O[C@@](F)(C(=O)OC)[C@H](F)[C@H](N)[C@H]1NC(C)=O	90		
COC(=O)[C@]1(F)O[C@@H]([C@H](O)[C@H](O)COC(=O)OC(C)C)[C@H](NC(C)=O)[C@@H](N)[C@H]1F	1680	2690	
COC(=O)[C@]1(F)O[C@@H]([C@H](O)[C@H](O)COC(=O)OCC(C)(C)C)[C@H](NC(C)=O)[C@@H](N)[C@H]1F	2100	6010	
COC(=O)[C@]1(F)O[C@@H]([C@H](O)[C@H](O)COC(=O)OCC2c3ccccc3-c3ccccc32)[C@H](NC(C)=O)[C@@H](N)[C@H]1F	620	750	
COC(=O)[C@]1(F)O[C@@H]([C@H](O)[C@H](O)COP(=O)(OC)OC)[C@H](NC(C)=O)[C@@H](N)[C@H]1F	960	620	
CCOP(=O)(OCC)OC[C@@H](O)[C@@H](O)[C@@H]1O[C@@](F)(C(=O)OC)[C@H](F)[C@H](N)[C@H]1NC(C)=O	1000	2550	
CC(=O)N[C@H]1[C@H]([C@H](O)[C@H](O)CO)OC(C(=O)O)=C[C@@H]1N=C(N)N [ZANAMIVIR]			concentration at 20 min [13]: 1310 nM; concentration at 1 h [14]: 1300 nM
